Experimental data from patent publication US20150148377A1, “Quinoline Derivatives” (NOVARTIS AG, priority 2011, published 2015).

Experiments:
[1] = target: T1, human phosphoinositide-3 kinase (PI3K) delta (Homo sapiens, UniProt O00329); test: PI3K-mediated Akt 1/2 (S473) phosphorylation in Rat-1 cells (Cell PI3Kδ); type: cell-based; conditions: Rat-1 cells overexpressing myristoylated human PI3K delta; p-Akt (Ser473)
T1 construct: myristoylation signal (myristoylated form); expressed in transfected cells
Description: 2.1 Phosphoinositide-3 kinase (PI3K)-mediated Akt 1/2 (S473) phosphorylation in Rat-1 cells
Rat-1 cells stably overexpressing a myristoylated form of the catalytic subunit of human phosphoinositide-3 kinase (PI3K) alpha, beta or delta were plated in 384-well plates at a density of 7500 (PI3K alpha), 6200 (PI3K beta), or 4000 (PI3K delta) cells in 30 ul complete growth medium (Dulbecco's modified Eagle's medium (DMEM high glucose) supplemented with 10% (v/v) fetal bovine serum, 1% (v/v) MEM non essential amino acids, 10 mM HEPES, 2 mM L-glutamine, 10 μg/mL puromycin and 1% (v/v) Penicillin/Streptomycin) and were incubated at […]/5% CO2/95% humidity for 24 h. Compounds were diluted in 384-well compound plates to obtain 8-point serial dilutions for 40 test compounds in 90% DMSO, as well as 4 reference compounds plus 16 high controls and 16 low (inhibited) controls. Predilution plates were prepared by dispensing pipetting 250 nl of compound solutions into 384-well polypropylen plates using a Hummingwell nanoliter dispensor. Compounds were prediluted by the addition of 49.75 ul complete growth medium. 10 ul of prediluted compound solution were transferred to the cell plate using a 384-well pipettor, resulting in a final DMSO concentration of 0.11%. Cells were incubated for 1 h at […]/5% CO2/95% humidity. The supernatant was removed, the cells were lysed in 20 ul of lysis buffer for AlphaScreen® SureFire® detection.
For detection of p-AKT(Ser473), the SureFire® p-Akt 1/2 (Ser473) Assay Kit (PerkinElmer, U.S.A) was used. 5 ul of cell lysate was transferred to 384-well low volume Proxiplates for detection using a 384-well pipettor. Addition of AlphaScreen® SureFire® reagents was done according to the manufacturer's protocol. First, 5 ul of reaction buffer plus activation buffer mix containing AlphaScreen® acceptor beads was added, the plate was sealed, and incubated on a plate shaker for 2 hours at room temperature. Second, 2 ul of dilution buffer containing AlphaScreen® donor beads was added, and the plate was incubated on plate shaker as above for a further 2 hours. The plate was read on an AlphaScreen® compatible plate reader, using standard AlphaScreen® settings.

CD86 on rat B cells = test: Rat B cell activation in whole blood (CD86 upregulation after anti-IgM and IL-4); type: cell-based; conditions: anti-IgM + rIL-4 stimulation, CD86 on CD45RA+ B cells, read-out: RWB/IC50 CD86
Description: PI3Kδ has been recognized to modulate B cell function when cells are stimulated through the B cell receptor (BCR) (Okkenhaug et al. Science 297:1031 (2002). For assessing the inhibitory property of compounds on B cell activation, the upregulation of activation markers CD86 on rat B cells derived from whole blood is measured after stimulation with anti-IgM and recombinant IL-4. The CD86 molecule (also known as B7-2) is primarily expressed on antigen-presenting cells, including B cells. Resting B cells express CD86 at low levels, but upregulate it following stimulation of e.g. the BCR or IL-4 receptor. CD86 on a B cell interacts with CD28 on T cells. This interaction is required for optimal T cell activation and for the generation of an optimal IgG1 response (Carreno et al. Annu Rev Immunol. 20:29 (2002)).
Whole blood was collected from the abdominal aorta adult male Lewis rats (LEW/HanHsd) oby using a 10 ml syringe with hypodermic needle pre-coated with sodium heparin. Blood was transferred into 50 ml Falcon tubes and the anticoagulant concentration was adjusted to 100 U/ml.
For assessment of the in vitro effects of immunosuppressive drugs, heparinized blood was prediluted to 50% with medium. As medium served DMEM high glucose (Animed cat#1-26F01-I) supplemented with 100 U/ml penicillin, […], 2 mM L-glutamin, 50 mg/ml dextran 40 and 5% fetal calf serum (FCS, Fetaclone I, Gibco #10270-106). Then, 190 μl prediluted blood was spiked with 10 μl of pre-diluted test compound in 96 well U-bottomed microtiter plates (Nunc) resulting in a 3-fold serial dilution with a concentration range from 20 to 0.0003 μM. Control wells were pretreated with DMSO to obtain a final concentration of 0.5% DMSO. Cultures were set up in duplicates, mixed well by agitation on a plate shaker (Heidolph Titramax 101; 30 sec, speed 900), pipetting up and down and agitated on the plate shaker again. Cultures were incubated at 37° C., 5% CO2 for 1 hr. Then, 20 μl of polyclonal goat anti-rat IgM Ab (Serotec, cat#302001) and 10 μl of diluted recombinant rIL-4 (Immunotools #340085) were added to obtain final concentrations of 30 μg/ml and 5 ng/ml, respectively. Plates were mixed by agitation on a plate shaker as above and incubated for 24 hrs at 37° C., 5% CO2.
After incubation, 15 μl of a 25 mM EDTA solution was added per well and shaken for 15 min to detach adherent cells. For analysis of surface activation markers, samples were then stained with PE-Cy5-labeled anti-ratCD45RA (BD cat#557015) to allow gating on B cells in FACS analysis. In addition, samples were stained with PE-labeled anti-rat CD86 (BD cat#551396). All staining procedures were performed at RT for 30 min in the dark. After incubation, samples were transferred to 96-deep well V-bottomed microtiter plates (Corning #396096) containing 2 ml/well of BD Lysing Solution (BD #349202). After lysis of erythrocytes samples were washed with 2 ml of CeIIWASH (BD #349524). Data was acquired on an LSRII or FACScalibur flow cytometer (BD Biosciences) using Cellquest Plus or DIVA (version 6.1.1) software, respectively. Lymphocytes were gated in the FSC/SSC dot blot according to size and granularity and further analyzed for expression of CD45RA and activation markers. Data were calculated from dot blots or histograms as percentage of cells positively stained for activation markers within the CD45RA+ population.
The percentage inhibition of B cell activation after exposure to drug was calculated by the following formula: […]
ORIGIN 7 software (Origin Lab Corporation, Northampton, Mass.) was used for non-linear regression curve fitting. The drug concentration resulting in 50% inhibition (IC50) was obtained by fitting the Hill equation to inhibition data.

T1 sequence (O00329 whole entry): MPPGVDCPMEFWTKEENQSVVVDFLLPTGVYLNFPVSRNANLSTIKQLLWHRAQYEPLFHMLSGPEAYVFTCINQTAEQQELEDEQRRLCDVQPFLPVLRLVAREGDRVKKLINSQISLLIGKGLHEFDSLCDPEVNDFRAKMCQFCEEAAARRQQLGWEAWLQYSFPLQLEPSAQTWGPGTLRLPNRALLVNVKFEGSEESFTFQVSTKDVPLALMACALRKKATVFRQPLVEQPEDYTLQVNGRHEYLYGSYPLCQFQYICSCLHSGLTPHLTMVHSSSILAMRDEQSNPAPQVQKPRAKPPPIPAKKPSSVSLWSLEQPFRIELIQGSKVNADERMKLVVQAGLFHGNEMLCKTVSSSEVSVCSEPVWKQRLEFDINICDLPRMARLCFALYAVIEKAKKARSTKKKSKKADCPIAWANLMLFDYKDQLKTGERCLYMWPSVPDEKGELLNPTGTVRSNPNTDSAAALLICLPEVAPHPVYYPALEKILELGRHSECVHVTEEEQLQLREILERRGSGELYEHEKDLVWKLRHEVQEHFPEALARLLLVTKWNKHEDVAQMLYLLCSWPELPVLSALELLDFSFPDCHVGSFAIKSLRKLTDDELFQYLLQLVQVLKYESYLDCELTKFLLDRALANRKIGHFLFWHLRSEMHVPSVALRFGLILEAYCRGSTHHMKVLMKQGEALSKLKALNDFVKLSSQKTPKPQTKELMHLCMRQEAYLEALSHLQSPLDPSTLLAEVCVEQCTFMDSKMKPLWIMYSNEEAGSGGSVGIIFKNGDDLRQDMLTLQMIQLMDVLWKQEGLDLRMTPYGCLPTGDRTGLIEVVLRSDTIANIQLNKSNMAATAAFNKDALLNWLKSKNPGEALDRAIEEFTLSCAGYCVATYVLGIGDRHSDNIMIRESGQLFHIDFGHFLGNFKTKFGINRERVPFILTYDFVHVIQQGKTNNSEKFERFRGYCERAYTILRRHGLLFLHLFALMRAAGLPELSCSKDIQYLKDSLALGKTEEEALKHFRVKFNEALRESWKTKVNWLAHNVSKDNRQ
T1 sequence (Q63787 whole entry partner): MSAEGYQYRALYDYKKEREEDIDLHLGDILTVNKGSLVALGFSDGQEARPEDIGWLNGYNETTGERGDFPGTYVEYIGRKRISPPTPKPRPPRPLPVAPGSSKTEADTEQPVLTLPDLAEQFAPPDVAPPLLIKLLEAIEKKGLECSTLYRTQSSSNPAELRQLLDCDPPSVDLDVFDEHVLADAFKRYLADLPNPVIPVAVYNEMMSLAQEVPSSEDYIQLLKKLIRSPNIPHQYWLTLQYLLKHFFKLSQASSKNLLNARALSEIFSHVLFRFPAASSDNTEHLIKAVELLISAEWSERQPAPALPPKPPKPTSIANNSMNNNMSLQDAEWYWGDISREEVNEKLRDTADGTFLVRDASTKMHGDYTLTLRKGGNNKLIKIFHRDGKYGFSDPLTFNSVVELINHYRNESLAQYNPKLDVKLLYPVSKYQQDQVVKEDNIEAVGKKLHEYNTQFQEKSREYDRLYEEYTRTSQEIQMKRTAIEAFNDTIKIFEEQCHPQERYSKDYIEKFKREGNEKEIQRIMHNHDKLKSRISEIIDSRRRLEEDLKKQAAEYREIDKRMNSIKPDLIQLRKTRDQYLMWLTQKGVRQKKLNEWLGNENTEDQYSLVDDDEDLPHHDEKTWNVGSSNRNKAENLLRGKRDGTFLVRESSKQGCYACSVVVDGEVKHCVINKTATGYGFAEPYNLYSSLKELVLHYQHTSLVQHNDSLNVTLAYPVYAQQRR

| IC50 [1] [nM] | IC50 (CD86 on rat B cells) [nM] | Compound |
| --- | --- | --- |
| 14 | 47 | COc1ncc(-c2ccnc3ccc(O[C@H]4CCN(C(=O)[C@@H]5CCN(C(C)=O)C5)C4)cc23)cc1C(F)F [Example A24, 1-((R)-3-{(S)-3-[4-(5-Difluoromethyl-6-methoxy-pyridin-3-yl)-quinolin-6-yloxy]-pyrrolidine-1-carbonyl}-pyrrolidin-1-yl)-ethanone] |
| 116 | 46.2 | Cc1cc(-c2ccnc3cc(F)c(O[C@H]4CCN(C(=O)C5CCOCC5)C4)cc23)cnc1S(C)(=O)=O [Example C2, {(S)-3-[7-Fluoro-4-(6-methanesulfonyl-5-methyl-pyridin-3-yl)-quinolin-6-yloxy]-pyrrolidin-1-yl}-(tetrahydro-pyran-4-yl)-methanone] |
| 105 | 107 | COc1ncc(-c2ccnc3ccc(O[C@H]4CCN(C(=O)C5CCS(=O)(=O)CC5)C4)c(C)c23)cc1C [Example B3, (1,1-Dioxo-hexahydro-1lambda*6*-thiopyran-4-yl)-{(S)-3-[4-(6-methoxy-5-methyl-pyridin-3-yl)-5-methyl-quinolin-6-yloxy]-pyrrolidin-1-yl}-methanone] |
| 246 | 86.5 | COc1ncc(-c2ccnc3cc(F)c(O[C@H]4CCN(C(=O)C5CCS(=O)(=O)CC5)C4)cc23)cc1C [Example C1, (1,1-Dioxo-hexahydro-1lambda*6*-thiopyran-4-yl)-{(S)-3-[7-fluoro-4-(6-methoxy-5-methyl-pyridin-3-yl)-quinolin-6-yloxy]-pyrrolidin-1-yl}-methanone] |
| 260 | 443 | CCC(=O)N1CC[C@H](Oc2ccc3nccc(-c4cnc(S(C)(=O)=O)c(C)c4)c3c2)C1 [Example A25, 1-{(S)-3-[4-(6-Methanesulfonyl-5-methyl-pyridin-3-yl)-quinolin-6-yloxy]-pyrrolidin-1-yl}-propan-1-one] |
| 78 | 43 | COc1ncc(-c2ccnc3ccc(O[C@H]4CCN(C(=O)C5CCS(=O)(=O)CC5)C4)cc23)cc1C(F)F [Example A6, {(S)-3-[4-(5-Difluoromethyl-6-methoxy-pyridin-3-yl)-quinolin-6-yloxy]-pyrrolidin-1-yl}-(1,1-dioxo-hexahydro-1lambda*6*-thiopyran-4-yl)-methanone] |
| 32 | 73 | COc1ncc(-c2ccnc3ccc(O[C@H]4CCN(C(=O)C5CCS(=O)(=O)CC5)C4)cc23)cc1Cl [Example A1, {(S)-3-[4-(5-Chloro-6-methoxy-pyridin-3-yl)-quinolin-6-yloxy]-pyrrolidin-1-yl}-(1,1-dioxo-hexahydro-1lambda*6*-thiopyran-4-yl)-methanone] |
| 52 | 101 | COc1ncc(-c2ccnc3ccc(O[C@H]4CCN(C(=O)C5CCS(=O)(=O)CC5)C4)cc23)cc1C [Example A15, (1,1-Dioxo-hexahydro-1lambda*6*-thiopyran-4-yl)-{(S)-3-[4-(6-methoxy-5-methyl-pyridin-3-yl)-quinolin-6-yloxy]-pyrrolidin-1-yl}-methanone] |
| 16 | 59 | COc1ncc(-c2ccnc3ccc(O[C@H]4CCN(C(=O)[C@@H]5CCN(C(C)=O)C5)C4)cc23)cc1C [Example A10, 1-((R)-3-{(S)-3-[4-(6-Methoxy-5-methyl-pyridin-3-yl)-quinolin-6-yloxy]-pyrrolidine-1-carbonyl}-pyrrolidin-1-yl)-ethanone] |
| 14 | 78 | COc1ncc(-c2ccnc3ccc(O[C@H]4CCN(C(=O)[C@@H]5CCN(C(C)=O)C5)C4)c(C)c23)cc1C(F)F [Example B1, 1-((R)-3-{(S)-3-[4-(5-Difluoromethyl-6-methoxy-pyridin-3-yl)-5-methylquinolin-6-yloxy]-pyrrolidine-1-carbonyl}-pyrrolidin-1-yl)-ethanone] |
